Results on four molecules are retold here after patent publication US5571804A, “Cephalosporin antibiotics” (priority 1993, dated 1996).

Series [1] has as its system Staphylococcus aureus 6538P. The experiment in a line: MIC, two-fold agar dilution. The format is cell-based. As to conditions: Muller-Hinton agar, 37° C., 20 hours. Background: Agar dilution tests growth on a series of plates holding different concentrations.
Series [2] relates to Staphylococcus aureus giorgio. As to the kind of experiment: MIC, two-fold agar dilution. The format is cell-based. The conditions noted are these: Muller-Hinton agar, 37° C., 20 hours.
The test system of series [3] is Staphylococcus aureus 77. As to the kind of experiment: MIC, two-fold agar dilution. The format is cell-based. The conditions noted are these: Muller-Hinton agar, 37° C., 20 hours.
Series [4] deals with Staphylococcus aureus 241. As to the kind of experiment: MIC, two-fold agar dilution. The series is classed as cell-based. The conditions noted are these: Muller-Hinton agar, 37° C., 20 hours.
Series [5] has as its system Staphylococcus epidermidis 887E. As to the kind of experiment: MIC, two-fold agar dilution. The format is cell-based. The conditions noted are these: Muller-Hinton agar, 37° C., 20 hours.
Series [6] deals with Streptococcus laecalis 29212A. As to the kind of experiment: MIC, two-fold agar dilution. The format is cell-based. The conditions noted are these: Muller-Hinton agar, 37° C., 20 hours.
Series [7] has as its system E. coli 10536. The experiment in a line: MIC, two-fold agar dilution. The series is classed as cell-based. As to conditions: Muller-Hinton agar, 37° C., 20 hours.
The test system of series [8] is E. coli 3190Y. The experiment in a line: MIC, two-fold agar dilution. The format is cell-based. The conditions noted are these: Muller-Hinton agar, 37° C., 20 hours.
Series [9] has as its system Pseudomonas aeruginosa 1912E. The experiment in a line: MIC, two-fold agar dilution. As to conditions: Muller-Hinton agar, 37° C., 20 hours. The format is cell-based.
Series [10] has as its system Pseudomonas aeruginosa 10145. The experiment in a line: MIC, two-fold agar dilution. The series is classed as cell-based. The conditions noted are these: Muller-Hinton agar, 37° C., 20 hours.
Series [11] concerns Pseudomonas aeruginosa 6065. As to the kind of experiment: MIC, two-fold agar dilution. The series is classed as cell-based. As to conditions: Muller-Hinton agar, 37° C., 20 hours.
Series [12] has as its system Acinetobacter calcoaceticus 15473A. As to the kind of experiment: MIC, two-fold agar dilution. The format is cell-based. As to conditions: Muller-Hinton agar, 37° C., 20 hours.
Series [13] has as its system Citrobacter diversus 2046E. The experiment in a line: MIC, two-fold agar dilution. The format is cell-based. As to conditions: Muller-Hinton agar, 37° C., 20 hours.
Series [14] has as its system Klebsiella aerogenes K1 + 1082E. The experiment in a line: MIC, two-fold agar dilution. The format is cell-based. As to conditions: Muller-Hinton agar, 37° C., 20 hours.
Series [15] deals with Proteus vularis 6059A. As to the kind of experiment: MIC, two-fold agar dilution. The series is classed as cell-based. The conditions noted are these: Muller-Hinton agar, 37° C., 20 hours.
Series [16] has as its system Serratia marcescens 1826E. The experiment in a line: MIC, two-fold agar dilution. The series is classed as cell-based. The conditions noted are these: Muller-Hinton agar, 37° C., 20 hours.
For series [17], the system named is Salmonella typhimurium 14028A. As to the kind of experiment: MIC, two-fold agar dilution. The format is cell-based. As to conditions: Muller-Hinton agar, 37° C., 20 hours.
Series [18] in a line: pharmakinetic variables in SD rats. As to conditions: rat, in vivo, iv, 20 mg/kg. As to the method:
The pharmakinetic variables were determined using SD rats (.male.) of a body weight of 230±10g as follows. The "S" compound of each of the Examples was injected to femoral vein of 4-5 rats by 20mg/Kg and then blood was collected from femoral artery in 1, 2.5, 5, 10, 20, 40, 60 and 120 min.

Series [19] relates to E. coli 851E. The experiment in a line: MIC, two-fold agar dilution. The series is classed as cell-based. As to conditions: Muller-Hinton agar, 37° C., 20 hours.
Series [20] relates to E. coli TEM1 1193E. The experiment in a line: MIC, two-fold agar dilution. The series is classed as cell-based. The conditions noted are these: Muller-Hinton agar, 37° C., 20 hours.
Series [21] has as its system E. coli TEM3 3455E. As to the kind of experiment: MIC, two-fold agar dilution. The format is cell-based. The conditions noted are these: Muller-Hinton agar, 37° C., 20 hours.
For series [22], the system named is E. coli TEM5 3739E. The experiment in a line: MIC, two-fold agar dilution. The format is cell-based. The conditions noted are these: Muller-Hinton agar, 37° C., 20 hours.
The test system of series [23] is E. coli TEM7 3457E. The experiment in a line: MIC, two-fold agar dilution. The series is classed as cell-based. The conditions noted are these: Muller-Hinton agar, 37° C., 20 hours.
For series [24], the system named is E. coli TEM9 2639E. As to the kind of experiment: MIC, two-fold agar dilution. The conditions noted are these: Muller-Hinton agar, 37° C., 20 hours. The series is classed as cell-based.
For series [25], the system named is Enterobacter cloacae IND + VE 1194E. As to the kind of experiment: MIC, two-fold agar dilution. The series is classed as cell-based. As to conditions: Muller-Hinton agar, 37° C., 20 hours.
The test system of series [26] is Enterobacter cloacae P99. The experiment in a line: MIC, two-fold agar dilution. The series is classed as cell-based. The conditions noted are these: Muller-Hinton agar, 37° C., 20 hours.
Series [27] deals with Klebsiella aerogenes SHV-1 1976E. The experiment in a line: MIC, two-fold agar dilution. The format is cell-based. As to conditions: Muller-Hinton agar, 37° C., 20 hours.

Bounds are passed on as bounds.

Broadly, the AUC is the area under the concentration-time curve, a measure of exposure. A high value points to high exposure. On to `CC(C)(O/N=C(\C(=O)N[C@@H]1C(=O)N2C(C(=O)[O-])=C(C[n+]3ccccc3)CS[C@H]12)c1csc(N)n1)C(=O)O` [Ceftazidime, reference compound], for which the “minimal inhibitory concentration (MIC)” value in series [1] was 16; in series [2] it was 4; in series [3], 32; in [4] it was above 128; in [5] it was above 128; in series [6], above 128. Further, the “minimal inhibitory concentration (MIC)” value in series [7] is given as 0.13; in series [8], 0.063; in series [9] it was 1; in series [10], 2; in series [11], 16; in series [12], 2. Moreover, the “minimal inhibitory concentration (MIC)” value is 0.5 in series [13]; 0.25 in series [14]; 0.063 in series [15]; 0.25 in series [16]; 0.25 in series [17]. Moreover, the AUC at 2 h in [18] is 31100 ng·h/mL.
As to `Nc1nc(/C(=N/O[C@@H](C(=O)O)c2ccc(O)c(O)c2)C(=O)N[C@@H]2C(=O)N3C(C(=O)O)=C(CSc4nc(N)c5c(n4)CCC5)CS[C@H]23)cs1` [Compound I-4R, 7-[(Z)-2-(aminothiazol-4-yl)-2-(α-carboxyl-3,4-dihydroxybenzyioxyimino)acetamido]-3-(4-amino-5,6-cyclopentapyrimidine-2-yl)thiomethyl-3-cephem-4-carboxylate], the “minimal inhibitory concentration (MIC)” value in series [1] came to 2; in series [2], 2; in [3], 32; in series [4], 128; in series [5], 32; in [6] it was 16. Besides, the “minimal inhibitory concentration (MIC)” value came to 0.063 in series [7]; 0.25 in series [8]; 0.13 in [19]; 0.5 in series [20]; 0.25 in [21]; 0.25 in series [22]. Moreover, the “minimal inhibitory concentration (MIC)” value in series [23] is 0.063; in series [24], 0.5; in [10], 2; in [11], 8; in series [12] it was 1; in series [13] it was 2. For the same molecule, the “minimal inhibitory concentration (MIC)” value in series [25] is recorded as 32; in series [26], 32; in series [27] it was 0.5; in series [14] it was 1; in series [15] it was 0.5; in [16], 2. In addition, the “minimal inhibitory concentration (MIC)” value in [17] was found to be 0.13.
For `Nc1cc(SCC2=C(C(=O)O)N3C(=O)[C@@H](NC(=O)/C(=N\O[C@@H](C(=O)O)c4ccc(O)c(O)c4)c4csc(N)n4)[C@H]3SC2)nc(N)n1` [Compound I-6R, 7-[(Z)-2-(aminothiazol-4-yl)-2-(α-carboxy-3,4-dihydroxybenzyloxyimino)acetamido]-3-(2,6-diamino-pyrimidine-4-yl)thiomethyl-3-cephem-4-carboxylate], the “minimal inhibitory concentration (MIC)” value in [1] was found to be 1; in series [2], 1; in [3], 16; in series [4], 64; in [5], 32; in [6], 4. For the same molecule, the “minimal inhibitory concentration (MIC)” value is 0.016 in series [7]; 0.063 in series [8]; 0.063 in series [19]; 0.063 in [20]; 0.031 in series [21]; 0.063 in series [22]. Besides, the “minimal inhibitory concentration (MIC)” value was 0.016 in series [23]; 0.25 in series [24]; 0.25 in series [9]; 0.25 in series [10]; 1 in [11]; 0.25 in [12]. For the same molecule, the “minimal inhibitory concentration (MIC)” value was found to be 0.13 in [13]; 4 in [25]; 8 in [26]; 0.25 in series [27]; 0.25 in series [14]; 0.25 in [15]. Moreover, the “minimal inhibitory concentration (MIC)” value in series [16] is recorded as 0.5; in series [17], 0.13.
As a reminder, the half-life is the time needed for the level to fall by half in the phase considered. `Nc1cc(SCC2=C(C(=O)O)N3C(=O)[C@@H](NC(=O)/C(=N\O[C@H](C(=O)O)c4ccc(O)c(O)c4)c4csc(N)n4)[C@H]3SC2)nc(N)n1` [Compound I-6S, 7-[(Z)-2-(aminothiazol-4-yl)-2-(α-carboxy-3,4-dihydroxybenzyloxyimino)acetamido]-3-(2,6-diamino-pyrimidine-4-yl)thiomethyl-3-cephem-4-carboxylate]: the “minimal inhibitory concentration (MIC)” value turned out to be 1 in series [1]; 1 in series [2]; 8 in series [3]; 64 in [4]; 32 in [5]; 2 in series [6]. The “minimal inhibitory concentration (MIC)” value is reported as at most 0.008 in series [7]; 0.031 in series [8]; 0.031 in [19]; 0.031 in series [20]; 0.016 in series [21]; 0.063 in [22]. For the same molecule, the “minimal inhibitory concentration (MIC)” value is recorded as at most 0.008 in series [23]; 0.13 in series [24]; 0.25 in series [10]; 0.25 in series [11]; 0.13 in [12]; 0.063 in series [13]. For the same molecule, the “minimal inhibitory concentration (MIC)” value in series [25] was 2; in [26], 8; in series [27] it was 0.13; in [14], 0.031; in series [15], 0.13; in series [16], 0.13. In series [17], the “minimal inhibitory concentration (MIC)” value is given as 0.016. Moreover, the AUC at 2 h in series [18] was 59800 ng·h/mL. This molecule showed a half-life in series [18] of 62 min.
